In publication PMC7028811, “Biopharmaceutical Understanding of Excipient Variability on Drug Apparent Solubility Based on Drug Physicochemical Properties: Case Study—Hypromellose (HPMC)” (The AAPS Journal, 2020):
Converted amounts (≈) assume the structure as drawn. Where two headings read alike, the source gives them in different places. Marks after values point to notes of the source that are not given here.

Columns and labels:
[1] = cited from earlier work; for Lipophilicity (log P): experimental values; for Solubility (BCS classification): based on the compound's BCS classification
[2] = Relative effect (RE) of HPMC brands on drug apparent solubility, shake-flask with drug/excipient physical mixtures; format: physicochemical; conditions: FaSSIF-V2
Protocol: (§1) Compendial media (0.1 N HCl pH 1, phosphate buffer pH 6.8) were prepared according to the method described in the European Pharmacopoeia ([43]). Fasted State Simulated Gastric Fluid (FaSSGF) and Fasted State Simulated Intestinal Fluid (FaSSIF-V2) were prepared as described by Jantratid et al. ([44]).
Drug solubility studies in the absence and presence of excipient were performed in triplicate using the shake-flask method ([45]). Drug excess amount and 2% w/w or 5% w/w of each excipient were weighed and placed in centrifuge tubes. […] The physical mixtures were vortexed for 3 min. Five millilitres of each medium was added in the tubes and the samples were placed in a shaking water bath (37 °C, 200 strokes per minute (spm)). […] Filter adsorption studies were prior performed in triplicate for each drug. […] Filtered samples were further diluted (if needed) with the corresponding medium and analysed by HPLC (Supplementary Table I). Analytical procedures for drug quantification in the samples were modifications of already published methods. Drug quantification was made based on calibration curves. […] As drug solubility can be influenced by the changes in the pH of solutions by presence of dissolved drug ([38]), the pH of samples after the completion of each experiment was measured. Drug solubility was calculated based on the sample drug concentration measured.

[3] = Shake-flask drug solubility in absence of excipient (reference solubility); format: physicochemical; conditions: for solubility at 0.5 h: 37 °C, read-out: Solubility of pure drug
Protocol: as §1
Drug solubility studies in the absence and presence of excipient were performed in triplicate using the shake-flask method ([45]). Drug excess amount and 2% w/w or 5% w/w of each excipient were weighed and placed in centrifuge tubes. […] The physical mixtures were vortexed for 3 min. Five millilitres of each medium was added in the tubes and the samples were placed in a shaking water bath (37 °C, 200 strokes per minute (spm)). […] Filter adsorption studies were prior performed in triplicate for each drug. […] Filtered samples were further diluted (if needed) with the corresponding medium and analysed by HPLC (Supplementary Table I). Analytical procedures for drug quantification in the samples were modifications of already published methods. Drug quantification was made based on calibration curves. Standards were formulated from concentrated stock solutions consisting of drug dissolved in MeOH. As drug solubility can be influenced by the changes in the pH of solutions by presence of dissolved drug ([38]), the pH of samples after the completion of each experiment was measured. Drug solubility was calculated based on the sample drug concentration measured.

[4] = Theoretical % of drug ionized (Henderson-Hasselbalch equation at the pH of each medium); format: physicochemical

| Compound | pKa [1] | Lipophilicity (log P) [1] | Solubility (BCS classification) [1] | also measured |
| --- | --- | --- | --- | --- |
| CC(=O)Nc1ccc(O)cc1 [PRC, paracetamol] | Neutral (pKa=9.38) ([28]) | 0.20 ([28]) | – | – |
| NC(=O)N1c2ccccc2C=Cc2ccccc21 [CBZ, carbamazepine] | – | 2.45 ([29]) | Low ([30]) | pKa ([1]; ref DrugBank): Neutral (pKa=15)^a; Relative effect (RE) on drug apparent solubility ([2]; all the studied HPMC brands, 24 h): approximately 60%; solubility at 0.5 h ([3]; pH 1.6, fassgf or other biorelevant, thermodynamic from solid, FaSSGF, 0.5 h): 387 µg/mL (≈ 1640 µM); solubility at 0.5 h ([3]; pH 6.5, thermodynamic from solid, FaSSIF-V2, 0.5 h): 307 µg/mL (≈ 1300 µM) |
| CCC(C)n1ncn(-c2ccc(N3CCN(c4ccc(OCC5COC(Cn6cncn6)(c6ccc(Cl)cc6Cl)O5)cc4)CC3)cc2)c1=O (centres unmarked) [ITZ, itraconazole] | Weak base (pKa=4.5) ([39]) | 6.20 ([39]) | Low ([40]) | solubility at 24 h ([3]; aqueous buffer, thermodynamic from solid, Phosphate buffer pH 6.8, 37 °C, mean ± SD, n = 3): < 0.015 µg/mL |
| OCCN(CCO)c1nc(N2CCCCC2)c2nc(N(CCO)CCO)nc(N3CCCCC3)c2n1 [DPL, dipyridamole] | – | – | Low ([38]) | Effect of HPMC presence on drug apparent solubility [2]: did not affect; % of drug ionized ([4]; FaSSIF-V2): 34%; % of drug ionized ([4]; phosphate buffer pH 6.8): 20.1% |
| CC(C)Cc1ccc(C(C)C(=O)O)cc1 (centres unmarked) [IBU, Ibuprofen] | – | 4.00 ([33]) | – | – |
